This is an account of results in article PMC5688156, “The natural product carolacton inhibits folate-dependent C1 metabolism by targeting FolD/MTHFD” (Nature Communications, 2017).

This assay concerns the target T1, ecFolD K54N (Escherichia coli, UniProt P24186, K54N).
T1 construct: His-tag (TEV-cleavable, vector pHis-TEV); made in house; host or cells: E. coli BL21 (DE3)
Put plainly: SPR binding to ecFolD K54N. More on the design: species or system E. coli. As to conditions: K54N mutant. On the procedure: All surface plasmon resonance (SPR) experiments described in this study were performed on a Biacore X100 system. Different FolDs with or without His-tag were coupled on CM5 sensor chips (GE Healthcare) by the amine coupling method using a kit from GE Healthcare Life Sciences (Freiburg, Germany). A pH scouting process was performed before protein immobilization to test the most appropriate buffer and the protein concentration for protein coupling. Finally, 20 μg/mL of ecFolD in 10 mM maleate buffer (pH 6.8), 30 μg/mL of ecFolD Q98H in 10 mM maleate buffer (pH 6.3), 40 μg/mL of ecFolD K54N in 10 mM maleate buffer (pH 5.8), 20 μg/mL of spFolD in 10 mM maleate buffer (pH 6.0) and 15 μg/mL of MTHFD2 (His-tag cleaved) in 10 mM maleate buffer (pH 6.8) were used for coupling. In the protein immobilization procedure, the contact time was calculated based on the pH scouting results to achieve ~3000–5000 relative resonance units (RU). The buffer used in the SPR assays was 1× HBS-P buffer (10 mM HEPES pH 7.4, 150 mM NaCl, 0.05% Tween 20). The 1 mM stock solution of carolacton was prepared in 1× HBS-P buffer and diluted to different concentration ranges by two-fold serial dilution. In the SPR assay, the association time was 180 s and the dissociation time was 600 s. Data analysis was performed using the Biacore evaluation software. […]
Background: Surface plasmon resonance follows binding to a sensor surface in real time, without labels.

On to `CO[C@H](CC(=O)O)[C@@H](C)C(=O)[C@H](C)/C=C(\C)[C@H]1OC(=O)[C@H](O)[C@H](O)/C=C/[C@H](C)CCC[C@@H]1C` [carolacton], for which the “binding by SPR” value was “does not bind”.
